Data reported in paper PMC6678728, “Methylene Blue Blocks and Reverses the Inhibitory Effect of Tau on PMCA Function” (International Journal of Molecular Sciences, 2019).

Biological target: T1, purified pig brain PMCA (brainPMCA)
T1 construct: gene ATP2B1; native, purified from pig brain synaptosomal plasma membrane vesicles, delipidated, reconstituted in PS or PC
Test: quenching of intrinsic Trp fluorescence, Stern-Volmer
Type: binding, Sus scrofa
Conditions: reconstituted in PS, no tau; pH 7.4, 25 °C, 100 mM KCl, 2 mM MgCl2, 3.16 µM free Ca2+, 1 mM ATP; unreliable (extrapolated: titrated only up to 10 µM MB)
From the text: quenching of intrinsic Trp fluorescence, Stern-Volmer on purified pig brain PMCA (brainPMCA)

Kd: 52.6 ± 2.5 µM
Compound: CN(C)c1ccc2nc3ccc(=[N+](C)C)cc-3sc2c1 [Methylene blue]
